Common to all, as to assay type: cell-based
In experiment [1] the test system is KRAS-G12D mutant tumor cells AGS. The experiment is described as follows: Cell Proliferation Inhibition Assay (AGS), Cell-titer GLO, 96 h. To be noted: AGS cells, 96 h incubation, Cell-titer GLO, read-out: AGS(G12D). In outline:
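AGS cells (KRAS-G12D) grown in low-attachment plates were exposed to compound for 96 h at 37°C. Viability was read by CellTiter-Glo luminescence and converted to % inhibition against max and blank wells. IC50 came from curve fitting.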

Experiment [2] concerns KRAS-G12V mutant tumor cells SW620. Briefly: Cell Proliferation Inhibition Assay (SW620), Cell-titer GLO, 96 h. To be noted: SW620 cells, 96 h incubation, Cell-titer GLO, read-out: SW620(G12V). The procedure, abridged: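 SW620 cells (1×10^3/well, low-attachment) were exposed to compound from 10000 to 0.03 nM (0.5% DMSO) for 96 h at 37°C. Viability was read by Cell-titer GLO luminescence. Inhibition was calculated relative to DMSO and blank wells, and IC50 obtained by curve fitting.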

Experiment [3] deals with T1, KRAS G12D-cRAF (Homo sapiens, UniProt P01116, G12D).
T1 construct: expressed in transfected cells
T1 sequence (P01116 1-188 isoform P01116-2 G12D): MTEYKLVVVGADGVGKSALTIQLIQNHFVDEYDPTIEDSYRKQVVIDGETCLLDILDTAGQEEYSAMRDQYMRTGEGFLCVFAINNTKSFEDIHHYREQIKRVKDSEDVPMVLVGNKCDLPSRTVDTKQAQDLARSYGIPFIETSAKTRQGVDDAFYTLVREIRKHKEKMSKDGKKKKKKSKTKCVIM
Briefly: Cellular KRAS G12D-cRAF Binding Inhibition Assay (NanoBRET, AD293 stable cells). To be noted: 3 h incubation, read-out: NanoBRET KRAS G12D. The procedure, abridged: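 AD293 cells stably expressing KRAS G12D-NanoLuc and cRAF RBD-HaloTag were seeded at 1×10^4 cells/well with NanoBRET 618 ligand overnight. BRET signal was converted to % inhibition of binding relative to max and blank wells, and IC50 came from curve fitting.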

The target of experiment [4] is T2, KRAS G12V-cRAF (Homo sapiens, UniProt P01116, G12V).
T2 construct: expressed in transfected cells
T2 sequence (P01116 1-188 isoform P01116-2 G12V): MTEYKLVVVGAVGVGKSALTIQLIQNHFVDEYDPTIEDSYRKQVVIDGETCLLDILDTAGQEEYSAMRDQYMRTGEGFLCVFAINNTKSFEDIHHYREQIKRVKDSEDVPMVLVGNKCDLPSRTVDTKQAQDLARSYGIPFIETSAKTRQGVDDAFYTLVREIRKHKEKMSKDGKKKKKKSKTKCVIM
The experiment is described as follows: Cellular KRAS G12V-cRAF Binding Inhibition Assay (NanoBRET, AD293 stable cells). The conditions noted are these: 3 h incubation, read-out: NanoBRET KRAS G12V. The procedure, abridged: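 Live AD293 stable cells, NanoLuc donor with HaloTag NanoBRET 618 ligand acceptor added overnight. Inhibition percent from luminescence relative to max signal and medium blank; IC50 from curve fitting.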

pIC50: −log10 of the molar value. Like-named read-outs stand apart in the source and are kept apart here.

For `CC1OCCCn2c(c3c4cc(ccc42)-c2csc(n2)CC(NC(=O)C2CC2C(F)F)C(=O)N2CCCC(N2)C(=O)OCC(C)(C)C3)-c2cc(N3CCC(F)(F)CC3)cnc21` [Example 114, (1S,2S)-2-(difluoromethyl)-N-((1^5S,6^3S,4S,Z)-1^2-(4,4-difluoropiperidin-1-yl)-1^5,10,10-trimethyl-5,7-dioxo-1^8,1^9,6^1,6^2,6^3,6^4,6^5,6^6-octahydro-1^5H, 1^7H-8-oxa-1(13,15)-pyrido[3',2':7,8][1,5]oxazonino[5,6-alindola-2(4,2)-thiazola-6(1,3)-pyridazinacycloundecaphane-4-yl)cyclopropane-1-carbox amide], the pIC50 in experiment [1] (Homo sapiens, AGS, 96 h) was 7.80; in experiment [2] (Homo sapiens, SW-620, 96 h), 8.47; in experiment [3] it was 7.71; in experiment [4], 7.18.

`CC1OCCCn2c(c3c4cc(ccc42)-c2csc(n2)CC(NC(=O)C2CC2C(F)F)C(=O)N2CCCC(N2)C(=O)OCC(C)(C)C3)-c2cc(N3CC(N4CCOCC4)C3)cnc21` [Example 115, (1S,2S)-2-(difluoromethyl)-N-((1^5S,6^3S,4S,Z)-1^5,10,10-trimethyl-1^2-(3-morpholinoazetidin-1-yl) -5,7-dioxo-1^8,1^9,6^1,6^2,6^3,6^4,6^5,6^6-octahydro-1^5H,1^7H-8-oxa-1(13,15)-pyrido[3',2':7,8][1,5]oxazonino[5,6-a]indola-2(4,2)-thiazola-6(1,3)-pyridazinacycloundecaphane-4-yl)cyclopropane-1-carbox amide]: the pIC50 in experiment [1] (Homo sapiens, AGS, 96 h) is 8.76; in experiment [2] (Homo sapiens, SW-620, 96 h), 9.05; in experiment [3] it was 8.37; in experiment [4] it was 7.79.

As for `CC1OCCCn2c(c3c4cc(ccc42)-c2csc(n2)CC(NC(=O)C24CC(C)(C2)C4)C(=O)N2CCCC(N2)C(=O)OCC(C)(C)C3)-c2cc(N3CCOCC3)cnc21` (centres unmarked) [Example 116, 3-methyl-N-((1^5S6^3S4S,Z)-1^5,10,10-trimethyl-1^2-morpholino-5,7-dioxo-1^8,1^9,6^1,6^2,6^3,6^4,6^5,6^6-octahydro-1^5H,1^7H-8-oxa-1(13,15)-pyrido[3',2':7,8][1,5]oxazonino[5,6-a]indola-2(4,2)-thiazola-6 (1,3)-pyridazinacycloundecaphane-4-yl)bicyclo[1.1.1]pentane-1-carboxamide], the pIC50 was 8.08 in experiment [1] (Homo sapiens, AGS, 96 h); 8.39 in experiment [2] (Homo sapiens, SW-620, 96 h); 8.02 in experiment [3]; 7.42 in experiment [4].

Turning to `CC1OCCCn2c(c3c4cc(ccc42)-c2csc(n2)CC(NC(=O)C2CC2C(F)F)C(=O)N2CCCC(N2)C(=O)OCC(C)(C)C3)-c2cc(N3CCCC(N(C)C)C3)cnc21` [Example 117, (1S,2S)-2-(difluoromethyl)-N-((1^5S,6^3S,4S,Z)-1^2-(3-(dimethylamino)piperidin-1-yl)-1^5,10,10-trimethyl-5,7-dioxo-1^8,1^9,6^1,6^2,6^3,6^4,6^5,6^6-octahydro-1^5H,1^7H-8-oxa-1(13,15)-pyrido[3',2':7,8][1,5]oxazonino[5,6-a]indola-2(4,2)-thiazola-6(1,3)-pyridazinacycloundecaphane-4-yl)cyclopropane-1-carboxamide], the pIC50 is 9.07 in experiment [1] (Homo sapiens, AGS, 96 h); 9.68 in experiment [2] (Homo sapiens, SW-620, 96 h); 8.74 in experiment [3]; 8.09 in experiment [4].

For `CC1OCCCn2c(c3c4cc(ccc42)-c2csc(n2)CC(NC(=O)C2CC2C)C(=O)N2CCCC(N2)C(=O)OCC(C)(C)C3)-c2cc(N3CCOCC3)cnc21` [Example 118, (1S,2S)-2-methyl-N-((1^5S,6^3S,4S,Z)-1^5,10,10-trimethyl-1^2-morpholino-5,7-dioxo-1^8,1^9,6^1,6^2,6^3,6 ^4,6^5,6^6-octahydro-1^5H,1^7H-8-oxa-1(13,15)-pyrido[3',2':7,8][1,5]oxazonino[5,6-a]indola-2(4,2)-thiazola-6(1,3)-pyridazinacycloundecaphane-4-yl)cyclopropane-1-carboxamide], the pIC50 in experiment [1] (Homo sapiens, AGS, 96 h) was 8.42; in experiment [2] (Homo sapiens, SW-620, 96 h), 8.82; in experiment [3], 8.14; in experiment [4], 7.51.

With `CCN1CCN(c2cnc3c(c2)-c2c4c5cc(ccc5n2CCCOC3C)-c2csc(n2)CC(NC(=O)C23COC(C)(C2)C3)C(=O)N2CCCC(N2)C(=O)OCC(C)(C)C4)CC1` [Example 124, (1S,4r)-N-((1^5S,6^3S,4S,Z)-1^2-(4-ethylpiperazin-1-yl)-1^5,10,10-trimethyl-5,7-dioxo-1^8,1^9,6^1,6^2,6^3, 6^4,6^5,6^6-octahydro-1^5H,1^7H-8-oxa-1(13,15)-pyrido[3',2':7,8][1,5]oxazonino[5,6-a]indola-2(4,2)-thiazola-6(1,3)-pyridazinacycloundecaphane-4-yl)-1-methyl-2-oxabicyclo[2.1.1]hexane-4-carbox amide], the pIC50 was 8.33 in experiment [1] (Homo sapiens, AGS, 96 h); 8.84 in experiment [2] (Homo sapiens, SW-620, 96 h); 8.08 in experiment [3]; 7.75 in experiment [4].

In the case of `CC1OCCCn2c(c3c4cc(ccc42)-c2csc(n2)CC(NC(=O)C2CC2C(F)F)C(=O)N2CCCC(N2)C(=O)OCC(C)(C)C3)-c2cc(N3CCC4(CC3)COC4)cnc21` [Example 125, (1S,2S)-2-(difluoromethyl)-N-((1^5S,6^3S,4SZ)-1^5,10,10-trimethyl-5,7-dioxo-1^2-(2-oxa-7-azaspiro [3.5]nonan-7-yl)-1^8,1^9,6^1,6^2,6^3,6^4,6^5,6^6-octahydro-1^5H,1^7H-8-oxa-1(13,15)-pyrido[3',2':7,8][1,5]oxazonino[5,6-a]indola-2(4,2)-thiazola-6(1,3)-pyridazinacycloundecaphane-4-yl)cyclopropane-1-carboxamide], the pIC50 in experiment [1] (Homo sapiens, AGS, 96 h) was 8.55; in experiment [2] (Homo sapiens, SW-620, 96 h), 9.22; in experiment [3] it was 8.34; in experiment [4] it was 7.83.

Consider `CC1CN(c2cnc3c(c2)-c2c4c5cc(ccc5n2CCCOC3C)-c2csc(n2)CC(NC(=O)C2CC2C(F)F)C(=O)N2CCCC(N2)C(=O)OCC(C)(C)C4)CC(C)O1` [Example 128, (1S,2S)-2-(difluoromethyl)-N-((1^5S,6^3S,4S,Z)-1^2-((2S,6R)-2,6-dimethylmorpholino)-1^5,0,10-trimethyl-5,7-dioxo-1^8,1^9,6^1,6^2,6^3,6^4,6^5,6^6-octahydro-1^5H,1^7H-8-oxa-1(13,15)-pyrido[3',2':7,8][1,5]oxazonino[5,6-a]indola-2(4,2)-thiazola-6(1,3)-pyridazinacycloundecaphane-4-yl)cyclopropane-1-carboxamide], for which the pIC50 in experiment [1] (Homo sapiens, AGS, 96 h) is 8.89; in experiment [2] (Homo sapiens, SW-620, 96 h) it was 9.54; in experiment [3], 8.60; in experiment [4] it was 7.94.

Regarding `CC1CN(c2cnc3c(c2)-c2c4c5cc(ccc5n2CCCOC3C)-c2csc(n2)CC(NC(=O)C2CC2C(F)F)C(=O)N2CCCC(N2)C(=O)OCC(C)(C)C4)CCO1` [Example 130, (1S,2S)-2-(difluoromethyl)-N-((1^5S,6^3S,4S,Z)-1^5,10,10-trimethyl-1^2-((R)-2-methylmorpholino)-5,7-dioxo-1^8,1^9,6^1,6^2,6^3,6^4,6^5,6^6-octahydro-1^5H,^7H-8-oxa-1(13,15)-pyrido[3',2':7,8][1,5]oxazonino[5,6-a]indola-2(4,2)-thiazola-6(1,3)-pyridazinacycloundecaphane-4-yl)cyclopropane-1-carbox amide], the pIC50 in experiment [1] (Homo sapiens, AGS, 96 h) was 8.74; in experiment [2] (Homo sapiens, SW-620, 96 h), 9.07; in experiment [3], 8.47; in experiment [4], 7.79.

For `CC1CN(c2cnc3c(c2)-c2c4c5cc(ccc5n2CCCOC3C)-c2csc(n2)CC(NC(=O)C2CC2C(F)F)C(=O)N2CCCC(N2)C(=O)OCC(C)(C)C4)CC(C)O1` [Example 131, (1S,2S)-2-(difluoromethyl)-N-((1^5S,6^3S,4S,Z)-1^2-((2S,6S)-2,6-dimethylmorpholino)-1^5,10,10-trimethyl-5,7-dioxo-1^8,1^9,6^1,6^2,6^3,6^4,6^5,6^6-octahydro-1^5H,1^7H-8-oxa-1(13,15)-pyrido[3',2':7,8][1,5]oxazonino[5,6-a]indola-2(4,2)-thiazola-6(1,3)-pyridazinacycloundecaphane-4-yl)cyclopropane-1-carboxamide], the pIC50 was 8.88 in experiment [1], 9.29 in experiment [2], 8.59 in experiment [3] and 7.96 in experiment [4].

`CC1OCCCn2c(c3c4cc(ccc42)-c2csc(n2)CC(NC(=O)C2CC2C(F)F)C(=O)N2CCCC(N2)C(=O)OCC(C)(C)C3)-c2cc(N3CCS(=O)(=O)CC3)cnc21` [Example 133, (1S,2S)-2-(difluoromethyl)-N-((1^5S,6^3S,4S,Z)-1^2-(1,1-dioxidothiomorpholino)-1^5,10,10-trimethy 1-5,7-dioxo-1^8,1^9,6^1,6,^26^3,6^4,6^5,6^6-octahydro-1^5H,1^7H-8-oxa-1(13,15)-pyrido[3',2':7,8][1,5]oxazonino[5,6-alindola-2(4,2)-thiazola-6(1,3)-pyridazinacycloundecaphane-4-yl)cyclopropane-1-carboxamide]: the pIC50 in experiment [1] (Homo sapiens, AGS, 96 h) was 8.90; in experiment [2] (Homo sapiens, SW-620, 96 h), 9.10; in experiment [3], 8.04; in experiment [4] it was 7.39.

(Values after patent EP4800018A1, “PAN-KRAS INHIBITOR AND USE THEREOF IN MEDICINES” (Betta Pharmaceuticals Co., Ltd., priority 2023, dated 2025).)
